Measured values taken from ChEMBL document CHEMBL1201862, “PubChem BioAssay data set” (2004).
Active and inactive are the calls of the source.

Tests used:
[1] = A cytotoxicity screen of small molecule inhibitors of the PhoP region in Salmonella typhi identified in the primary screen. [Related pubchem assays: 1850, 1864, 1985 ]; assay type: functional
[2] = molecular target: Luciferin 4-monooxygenase (Photinus pyralis, UniProt P08659); experiment: firefly luciferase enzyme inhibitors, dose response, biochemical, luminescence (AID 1891)
Sequence of Luciferin 4-monooxygenase (P08659 whole entry): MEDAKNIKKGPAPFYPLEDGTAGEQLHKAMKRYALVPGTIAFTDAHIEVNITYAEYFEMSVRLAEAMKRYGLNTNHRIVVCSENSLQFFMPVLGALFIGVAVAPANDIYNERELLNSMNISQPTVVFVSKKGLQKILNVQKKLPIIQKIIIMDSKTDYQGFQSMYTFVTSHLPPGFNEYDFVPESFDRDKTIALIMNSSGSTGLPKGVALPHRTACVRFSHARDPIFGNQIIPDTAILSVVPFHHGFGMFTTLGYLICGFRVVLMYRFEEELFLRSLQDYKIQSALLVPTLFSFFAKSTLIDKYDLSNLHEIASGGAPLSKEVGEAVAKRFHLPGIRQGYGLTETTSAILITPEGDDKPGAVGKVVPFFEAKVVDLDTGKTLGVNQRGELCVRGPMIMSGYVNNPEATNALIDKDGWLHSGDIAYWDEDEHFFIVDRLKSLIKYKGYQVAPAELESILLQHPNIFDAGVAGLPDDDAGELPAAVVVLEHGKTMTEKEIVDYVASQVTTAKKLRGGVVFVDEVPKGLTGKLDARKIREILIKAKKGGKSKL

[3] = Luminescence Cell-Based Dose Confirmation HTS to Identify Inhibitors of Platelet Dense Granule Release. [Related pubchem assays: 1663 (Primary HTS), 1678 (Summary of Project)]; assay type: functional
Cytochrome P450 3A4 = Cytochrome P450 3A4 (Homo sapiens, UniProt P08684); conditions: Potency;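 note: confirmatory qHTS run detecting inhibitors and substrates of CYP3A4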
Sequence of Cytochrome P450 3A4 (P08684 whole entry): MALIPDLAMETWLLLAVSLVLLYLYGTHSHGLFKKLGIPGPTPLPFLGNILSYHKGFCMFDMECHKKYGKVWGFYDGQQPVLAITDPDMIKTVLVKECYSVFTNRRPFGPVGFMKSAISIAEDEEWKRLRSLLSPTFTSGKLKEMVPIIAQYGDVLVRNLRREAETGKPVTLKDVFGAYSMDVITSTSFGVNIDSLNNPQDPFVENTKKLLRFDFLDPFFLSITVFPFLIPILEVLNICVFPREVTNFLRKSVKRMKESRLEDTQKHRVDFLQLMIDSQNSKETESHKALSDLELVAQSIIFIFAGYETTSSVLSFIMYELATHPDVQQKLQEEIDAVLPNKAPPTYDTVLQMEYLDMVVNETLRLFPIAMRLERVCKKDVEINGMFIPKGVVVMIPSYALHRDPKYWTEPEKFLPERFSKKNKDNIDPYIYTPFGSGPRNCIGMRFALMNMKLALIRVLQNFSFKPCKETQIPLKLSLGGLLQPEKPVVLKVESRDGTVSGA

BJ [4] = experiment: cytotoxicity toward BJ-TERT fibroblasts, dose response, cell-based, RAS-independent, luminescence (AID 1933); assay type: functional; conditions: Homo sapiens
BJ [5] = experiment: cells; assay type: functional, cell-based; conditions: Homo sapiens
BJ [6] = experiment: cytotoxicity toward BJ-TERT-LT-ST fibroblasts, dose response, cell-based, RAS-independent, luminescence (AID 1935); assay type: functional; conditions: Homo sapiens;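 note: BJ fibroblasts immortalized with TERT plus LT and ST oncogenes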
[7] = cytotoxicity toward DRD oncogenic fibroblasts, dose response, cell-based, non-viral oncogenic, luminescence (AID 1934); assay type: functional; conditions: Homo sapiens
[8] = NIH-3T3 fibroblast cytotoxicity, dose response, cytotoxicity control, cell-based, fluorescence, Alamar Blue, secondary assay (AID 2327); assay type: functional;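 note: NIH-3T3 mouse fibroblasts cultured with fluconazole at 8 µg/mL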
[9] = C. albicans growth with fluconazole, confirmation, fluorescence, retest (AID 2467); assay type: functional, cell-based
[10] = inhibitors of intracellular T. cruzi replication, confirmation, NIH3T3 host cells, beta-gal luminescence (AID 2044); assay type: functional, cell-based;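 note: intracellular parasites grown in NIH/3T3 mouse fibroblasts as host cells; luminescent beta-galactosidase reporter signal from transgenic T. cruzi replicating inside host cells; inhibitors lower the luminescence signal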
[11] = cytotoxicity toward NIH3T3 fibroblasts, dose response, counter-screen, cell-based, ATP luminescence, mouse fibroblasts (AID 2010); assay type: functional;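 note: cells exposed to compound for about 90 hours before reading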
INS1 = experiment: beta cell apoptosis inhibitors, cytokine rescue, dose response, luminescence, retest (AID 449756); assay type: functional, cell-based; conditions: Rattus norvegicus;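 note: cell death triggered by IL-1 beta plus TNF-alpha plus IFN-gamma mixture; protective hits raise ATP signal compared with cytokine alone wells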
[12] = Shn3 3'UTR reporter inhibitors, dose response, cell-based, Clone20 osteoblasts, firefly luciferase, cherry-picked (AID 624132); assay type: functional;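 note: firefly luciferase luminescence from reporter carrying the Shn3 3'UTR in osteoblasts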
[13] = HepG2 cell cytotoxicity, dose response, cytotoxicity control for Shn3 inhibitor project, CellTiter-Glo, cherry-picked (AID 624134); assay type: functional, cell-based
[14] = control 3'UTR Renilla luciferase suppression, dose response, counter-screen for Shn3 inhibitor project, cell-based, Clone20-Shn3RL, cherry-picked (AID 624133); assay type: functional
[15] = ZM109 Env clade C HIV-1 fusion inhibitors, dose response, HeLa effector, CEM target cells, luciferase, cherry-pick (AID 652058); assay type: functional, cell-based
[16] = inhibitors of clade B AD8 Env fusion, dose response, cell-based, cherry-pick (AID 652062); assay type: functional;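 note: luciferase signal from cell-cell fusion driven by HIV-1 clade B AD8 Env; potency is for inhibitors of fusion seen as a drop in luminescence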
Estrogen receptor = molecular target: T1, Estrogen receptor (Homo sapiens, UniProt P03372);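 note: potency for inhibiting coactivator peptide recruitment to the receptor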
T1 sequence (P03372 whole entry): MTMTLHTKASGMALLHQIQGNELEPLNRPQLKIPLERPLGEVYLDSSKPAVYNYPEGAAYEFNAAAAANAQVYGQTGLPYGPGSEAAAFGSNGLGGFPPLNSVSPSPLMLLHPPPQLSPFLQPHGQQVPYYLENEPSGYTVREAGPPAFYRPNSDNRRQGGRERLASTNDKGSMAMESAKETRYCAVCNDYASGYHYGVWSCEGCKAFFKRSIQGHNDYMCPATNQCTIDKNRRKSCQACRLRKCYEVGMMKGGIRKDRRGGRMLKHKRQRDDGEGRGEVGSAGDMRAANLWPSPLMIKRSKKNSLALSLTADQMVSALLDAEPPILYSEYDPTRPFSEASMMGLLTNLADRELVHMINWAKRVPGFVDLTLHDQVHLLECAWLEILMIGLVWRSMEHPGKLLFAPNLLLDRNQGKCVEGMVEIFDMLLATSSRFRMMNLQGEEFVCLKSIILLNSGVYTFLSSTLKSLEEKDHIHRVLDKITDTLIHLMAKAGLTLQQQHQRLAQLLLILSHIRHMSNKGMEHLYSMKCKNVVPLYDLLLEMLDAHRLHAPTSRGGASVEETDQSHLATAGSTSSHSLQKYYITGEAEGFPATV

Estrogen receptor beta = Estrogen receptor beta (Homo sapiens, UniProt Q92731); experiment: ERβ–SRC-3 coactivator interaction inhibitors, confirmation, orthogonal assay, biochemical, ELISA, streptavidin-HRP readout (AID 1060)
Sequence of Estrogen receptor beta (Q92731 whole entry): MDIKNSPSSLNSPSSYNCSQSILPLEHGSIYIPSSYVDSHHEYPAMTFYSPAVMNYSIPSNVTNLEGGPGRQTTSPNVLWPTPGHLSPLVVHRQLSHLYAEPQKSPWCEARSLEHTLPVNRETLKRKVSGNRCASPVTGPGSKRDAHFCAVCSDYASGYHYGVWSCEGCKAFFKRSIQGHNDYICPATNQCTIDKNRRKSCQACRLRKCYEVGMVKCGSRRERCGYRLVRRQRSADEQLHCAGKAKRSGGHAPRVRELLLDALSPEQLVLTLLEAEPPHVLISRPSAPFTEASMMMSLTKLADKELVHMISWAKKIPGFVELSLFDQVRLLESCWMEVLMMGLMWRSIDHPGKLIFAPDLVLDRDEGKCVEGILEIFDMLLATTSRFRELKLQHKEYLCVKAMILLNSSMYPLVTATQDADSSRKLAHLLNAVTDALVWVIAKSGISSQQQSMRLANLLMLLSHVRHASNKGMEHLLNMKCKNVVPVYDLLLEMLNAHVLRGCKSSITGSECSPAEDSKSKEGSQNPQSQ

Compound: Clc1ccc(CNCc2cccs2)cc1Cl
- EC50 [1]: > 50 µM (active)

Compound: O=C1NC(=O)C2(CCC(C(=O)O)C2)N1 (stereo not given)
- EC50 [2]: > 112 µM (not active)
- EC50 [3]: > 112 µM (not active)

Compound: COC(=O)c1ccc(C(/C=C/[C@@H](C)C(=O)N(C)C)NC(=O)OCc2ccccc2)cc1 (stereo not given in full)
- AC50 (Cytochrome P450 3A4): 10 µM (inconclusive)

Compound: C=CCn1c(O)c(N=NC(=O)c2cccnc2)c2cc(Br)ccc21
- EC50 [1]: > 50 µM (active)

Compound: COc1cc(SC)ccc1C(=O)NNC(=O)c1cc(C)oc1C
- EC50 (BJ [4]): 3.71 µM (inconclusive)
- EC50 (BJ [5]): 6.06 µM (active)
- EC50 [2]: 1.4 µM (active)
- EC50 [3]: 8.87 µM (active)
- EC50 (BJ [6]): 18.2 µM (active)
- EC50 [7]: 3.82 µM (active)

Compound: Cc1ccc(CC(=O)Nc2ncc([N+](=O)[O-])s2)cc1
- EC50 [8]: 37.3 µM (active)
- EC50 [1]: > 50 µM (active)
- EC50 [9]: 0.033 µM (active)
- EC50 [10]: 0.687 µM (active)
- EC50 [11]: > 30 µM (not active)

Compound: Cc1ccc(C(=O)Nc2cccc3[nH]c(C(F)(F)F)nc23)cc1
- AC50 (INS1): 7.25 µM (active)
- AC50 [12]: 3.93 µM (active)
- AC50 [13]: 33.6 µM (active)
- AC50 [14]: 10.3 µM (active)

Compound: CC1(C)CC[C@]2(C(=O)O)CC[C@@]3(C)C(=CCC4[C@@]5(C)CCC(O)[C@@](C)(CO)C5CC[C@@]43C)C2C1 (stereo not given in full)
- AC50 (Cytochrome P450 3A4): 12.6 µM (inconclusive)

Compound: COc1ccccc1-c1c(C(F)(F)F)n[nH]c1-c1ccc(O)cc1O
- AC50 [12]: 0.708 µM (active)
- AC50 [13]: > 70 µM (inactive)
- AC50 [14]: 1.42 µM (active)
- AC50 [15]: 0.97 µM (active)
- AC50 [16]: 19 µM (active)

Compound: CCOC(=O)C1CCCN(C(=O)c2cc3ncc(Br)cn3n2)C1 (stereo not given)
- IC50 (Estrogen receptor): 20.7 µM (active)
- IC50 (Estrogen receptor beta): 0.0694 µM (not active)

Compound: COc1ccc(NC(=O)c2cc(-c3ccc(C)o3)nc3ccccc23)cc1OC
- IC50 (Estrogen receptor beta): 24.7 µM (not active)

Compound: COC1C=CC23c4cc5c(cc4CN(CC2O)C3C1)OCO5 (stereo not given)
- AC50 (Cytochrome P450 3A4): 39.8 µM (inconclusive)
